The numbers were not newly measured in patent US10272261B2, “Methods and compositions for treating ocular glaucoma” (Massachusetts Eye and Ear Infirmary, priority 2004, dated 2019), which cites them from elsewhere.

This data set deals with pigmented rabbits. As to conditions: pigmented rabbits compared with albino rabbits; cited from earlier work.

Take “chloro-aluminum sulfonated phthalocyanine [CASPc]”: the “duration of IOP reduction by ciliary body PDT” value is reported as “lasted a relatively shorter period than that of albino rabbits”.
